Our source for the IC50 values is US9242993B2, “Morpholino substituted bicyclic pyrimidine urea or carbamate derivatives as mTOR inhibitors” (CELLZOME LIMITED, priority 2011, dated 2016).

Assay [1] concerns S6RP serine-240/244 phosphorylation. Put plainly: In vitro phospho-S6 cellular assay. The conditions noted are these: Homo sapiens; HEK293T/17 cells, 2 hours; read-out: pS6 inhibition value (IC50), activity level. In kind it is cell-based. An excerpt:
Activation of mTOR signaling results in phosphorylation of several downstream targets. In cells, mTOR exists in two different protein complexes. The mTOR Complex-1 (mTORC1) phosphorylates and activates S6 Kinase 1 (S6K1) and S6 Kinase 2 (S6K2) (also known as p70S6K) which then phosphorylate S6 Ribosomal Protein (S6RP) (also known as RPS6)3. S6RP is phosphorylated on serine 235, serine 236, serine 240 and serine 244 by both pS6K1 and pS6K2. The mTOR Complex-2 (mTORC2) phosphorylates AKT on serine 473 which activates the AKT signaling pathway.
The assay measures a test compound's inhibition of S6RP serine-240/244 phosphorylation and inhibition of Akt serine-473 phosphorylation in human embryonic kidney derived HEK293T/17 cells (ATCC CRL-11268).
The HEK293T/17 cell line is maintained in DMEM media (Invitrogen catalogue number 41965-039) supplemented with 10% FCS at 37° C. in a 5% CO2 humidified incubator.
Cells are seeded in 96-well plates at 40,000 cells/well (pS6RP S240/244 assay) or 80,000 cells/well (pAkt S473 assay) in 90 μl growth media (DMEM, 2% FCS). Plates are incubated for 1 hour in a humidified incubator to allow the cells to adhere. Cells are treated with 8 concentrations of test compounds or DMSO alone for controls (final DMSO concentration 0.1%) and incubated at 37° C. for 2 hours. Then 20 μl of 5× concentrated lysis buffer (750 mM NaCl, 100 mM Tris pH7.4, 5 mM ADTA, 5 mM EGTA, 5% Triton X-100) is added, plates are sealed and incubated for 15 minutes at 4° C. with gentle shaking. After cell lysis, 25 μl cell lysate is transferred to a MesoScale plate coated with an antibody to pS6RP Ser240/244 (MesoScale Discovery K150DGD-3) or an antibody to pAkt Ser 473 (MesoScale Discovery K151DGD-3). Plates have been blocked before by incubation with 150 μl MesoScale Discovery Blocking Solution-A for 1 hour at room temperature followed by washing with 150 μl 1× Tris wash buffer per well. After the transfer of the cell lysate to the MSD plate, the pS6RP (or pAkt) protein is captured on the coated antibody by incubation at room temperature for 1 hour with gentle shaking. After the capture step the plate is washed three times with 150 μl of 1× Tris wash buffer per well. Then 25 μl detection antibody conjugated with a Sulfo-Tag is added and incubated for 1 hour at room temperature with gentle shaking. Subsequently the antibody solution is removed and the plate is washed 3 times with 150 μl 1× Tris wash buffer per well and 150 μl Read buffer is added. The plates are analysed on a MSD 2400 Plate Reader (MesoScale Discovery). Data analysis is performed using nonlinear regression for a sigmoidal dose-response with a variable slope.

For another assay, the target named is mTOR (Homo sapiens, UniProt P42345). In words: biochemical.

Regarding `CC1c2c(nc(-c3ccc(NC(=O)NC4CC4)cc3)nc2N2CCOC[C@@H]2C)CS1(=O)=O` (mixture of isomers) [Example 6, 1-cyclopropyl-3-(4-(5-methyl-4-((S)-3-methylmorpholino)-6,6-dioxido-5,7-dihydrothieno[3,4-d]pyrimidin-2-yl)phenyl)urea], the 50% inhibitory concentration (IC50) (in assay [1]; against mTOR) was less than 100 nM in each case. Take `C[C@H]1COCCN1c1nc(-c2ccc(NC(=O)NC3CC3)cc2)nc2c1CSCC2` [Example 3, (S)-1-cyclopropyl-3-(4-(4-(3-methylmorpholino)-7,8-dihydro-5H-thiopyrano[4,3-d]pyrimidin-2-yl)phenyl)urea]: the IC50 (in assay [1]; at mTOR) was less than 100 nM each time. In the case of `CC1c2nc(-c3ccc(NC(=O)NC4CC4)cc3)nc(N3CCOC[C@@H]3C)c2CS1(=O)=O` (stereo partly drawn) [Example 7, 1-cyclopropyl-3-(4-(7-methyl-4-((S)-3-methylmorpholino)-6,6-dioxido-5,7-dihydrothieno[3,4-d]pyrimidin-2-yl)phenyl)urea], the concentration for half-maximal inhibition (IC50) (in assay [1]; against mTOR) was less than 100 nM throughout.

For `C[C@@H]1COCCN1c1nc(-c2ccc(NC(=O)NC3CC3)cc2)nc2c1CS(=O)(=O)C2` [Example 17, (R)-1-cyclopropyl-3-(4-(4-(3-methylmorpholino)-6,6-dioxido-5,7-dihydrothieno[3,4-d]pyrimidin-2-yl)phenyl)urea], the concentration for half-maximal inhibition (IC50) in assay [1] is less than 100 nM; against mTOR, 100 to 1000 nM. `C[C@@H]1CN(c2nc(-c3ccc(NC(=O)NC4CC4)cc3)nc3c2CS(=O)(=O)C3)C[C@H](C)O1` [Example 19, 1-cyclopropyl-3-(4-(4-((2S,6R)-2,6-dimethylmorpholino)-6,6-dioxido-5,7-dihydrothieno[3,4-d]pyrimidin-2-yl)phenyl)urea] came in with a half-maximal inhibitory concentration (IC50) on mTOR of 1000 to 10000 nM. Regarding `O=C(Nc1ccc(-c2nc3c(c(N4CC5CCC(C4)O5)n2)CS(=O)(=O)C3)cc1)NC1CC1` [Example 20, 1-(4-(4-(8-oxa-3-azabicyclo[3.2.1]octan-3-yl)-6,6-dioxido-5,7-dihydrothieno[3,4-d]pyrimidin-2-yl)phenyl)-3-cyclopropylurea], the values for the IC50 (in assay [1]; against mTOR) were 100 to 1000 nM and less than 100 nM, respectively.

As to `CNC(=O)Nc1ccc(-c2nc3c(c(N4CC5CCC(C4)O5)n2)CS(=O)(=O)C3)cc1` [Example 21, 1-(4-(4-(8-oxa-3-azabicyclo[3.2.1]octan-3-yl)-6,6-dioxido-5,7-dihydrothieno[3,4-d]pyrimidin-2-yl)phenyl)-3-methylurea], the concentration for half-maximal inhibition (IC50) in assay [1] was 100 to 1000 nM; on mTOR it was less than 100 nM. As to `C[C@H]1COCCN1c1nc(-c2ccc(NC(=O)NCC(F)F)cc2)nc2c1CS(=O)(=O)C2` [Example 23, (S)-1-(2,2-difluoroethyl)-3-(4-(4-(3-methylmorpholino)-6,6-dioxido-5,7-dihydrothieno[3,4-d]pyrimidin-2-yl)phenyl)urea], the half-inhibitory concentration (IC50) is 100 to 1000 nM in assay [1] and less than 100 nM on mTOR.

As to `O=C(NCC(F)F)Nc1ccc(-c2nc3c(c(N4CC5CCC(C4)O5)n2)CS(=O)(=O)C3)cc1` [Example 24, 1-(4-(4-(8-oxa-3-azabicyclo[3.2.1]octan-3-yl)-6,6-dioxido-5,7-dihydrothieno[3,4-d]pyrimidin-2-yl)phenyl)-3-(2,2-difluoroethyl)urea], the IC50 in assay [1] was less than 100 nM; against mTOR it was 100 to 1000 nM. On mTOR, `CC1c2c(N3CCOCC3)nc(-c3ccc(NC(=O)NCCF)cc3)nc2C(C)(C)S1(=O)=O` (stereo not shown) [Example 81, 1-(2-fluoroethyl)-3-(4-(5,7,7-trimethyl-4-morpholino-6,6-dioxido-5,7-dihydrothieno[3,4-d]pyrimidin-2-yl)phenyl)urea] returned an IC50 of less than 100 nM. Regarding `C[C@@H]1c2c(N3CCOC[C@@H]3C)nc(-c3ccc(NC(=O)NC4CC4)cc3)nc2C(C)(C)S1(=O)=O` [Example 82, 1-cyclopropyl-3-(4-((R)-5,7,7-trimethyl-4-((S)-3-methylmorpholino)-6,6-dioxido-5,7-dihydrothieno[3,4-d]pyrimidin-2-yl)phenyl)urea], the 50% inhibitory concentration (IC50) on mTOR is less than 100 nM.

What is called IC50 is the concentration at which inhibition is half-maximal.
